Results as given in patent publication US20240067931A1, “METHODS AND COMPOSITIONS FOR SMALL MOLECULE BASED PANCREATIC BETA CELL INDUCTION” (Trailhead Biosystems Inc., priority 2022, published 2024).
“Also recorded” adds a separate entry of the source. Peptide text beside a SMILES is read from it.

B1: Cardiotropin: factor tested in HD-DoE for INS induction (protein, UniProt Q16619 1-201, looked up)
Cardiotrophin-1: MSRREGSLEDPQTDSSVSLLPHLEAKIRQTHSLAHLLTKYAEQLLQEYVQLQGDPFGLPSFSPPRLPVAGLSAPAPSHAGLPVHERLRLDAAALAALPPLLDAVCRRQAELNPRAPRLLRRLEDAARQARALGAAVEALLAALGAANRGPRAEPPAATASAASATGVFPAKVLGLRVCGLYREWLSRTEGDLGQLLPGGSA

How the values were obtained:
Format in all cases: cell-based, human
[1] = system: PDX1; experiment: HD-DoE perturbation matrix on DFE culture, modelling for maximal PDX1 induction; details: DFE culture, HD-DoE, FIG. 11
Source text: FIG. 11 Modelling for maximal PDX1 induction. Cultures of the iPSC cell line Cr01 was differentiated to a DFE state and then subjected to an HD-DoE perturbation matrix composed of the compounds indicated in the figure. MODDE software was used to predict the optimal condition for maximizing PDX1 activation. Predicted factor additives for this optimization and the relative expression under these conditions for the genes measured are shown.
FIG. 12 Coefficient plots show main effectors for pancreatic progenitor generation from a DFE precursor. Coefficients for the HD-DoE design shown in Example 9 are shown for PDX1 and PTF1A. The co-expression of these two genes is indicative of a pancreatic field.
To determine the best way for inducing a pancreatic fate from a DFE progenitor, a subsequent HD-DoE analysis was performed. Exposing a DFE culture to a perturbation matrix composed of all previously identified effectors shown to have a positive effect on PDX1 activation was used to define optimal conditions for PDX1 induction.

[2] = system: GCG, SST, PDX1, PAX4, MAFA and NKX2.2; experiment: HD-DoE stage 3 screening, heat map and dynamic profiling of endocrine and beta cell genes; details: for effect on beta cell specific transcription factors / all genes optimized: heat maps FIG. 19 and FIG. 21; for effect on beta cell state / endocrine fate: heat map FIG. 21, dynamic profiling FIGS. 22-25
Source text: (§1) FIG. 19 Heat map showing descending factor contributions for the induction of INS. The three HD-DoE experiments shown in Example 17 were used for modeling the maximal expression of several other genes, including GCG, SST, PDX1, PAX4, MAFA and NKX2.2, which are indicative of endocrine cell types with a focus on pancreatic beta cells as indicated at the top of the heat map. The relative factor contributions for the activation of these different genes were then used to generate a secondary heat map representative of the gene induction logic and then ranked according to the compound's ability to induce INS. Dark blue colors indicate a high inductive capacity, while dark red colors indicative of a highly repressive capacity for activation of the genes are shown.
(§2) FIG. 21 Heat map showing descending factor contributions for the induction of INS. The four HD-DoE experiments shown in Example 19 were used for modeling the maximal expression of several other genes. These genes were GCG, SST, PDX1, PAX4, MAFA and NKX2.2. These genes are all indicative of endocrine cell types with a focus on the beta cell as indicated at the top of the heatmap. The relative factor contribution for the activation of these different genes were then used to generate a secondary heat map representative of these genes induction logic and then ranked order according to the compounds ability to induce INS. Dark blue indicates high inductive capacity, while dark red is indicative of a highly repressive effect for the activation of the genes shown.
(§3) FIGS. 22-25. Dynamic profiling of endocrine sub-type regulation. One of the HD-DoE experiments shown in Example 19 was analyzed using MODDE software and dynamic profiling of the endocrine products GCG, SST and INS are shown.
To ascertain which factors could potentially favor the beta cell over other endocrine cell types, optimizers for markers of the other endocrine cell types and beta cell specific markers were compared. The relative factor contribution from the different optimizers were compared.
Optimizers for the main pancreatic endocrine hormones and beta cell-specific transcription factors were generated to compare their contribution factors for this series of HD-DoE. Compounds that could selectively favor the differentiation of the beta cell over that of the alpha and delta cells were identified in this manner.

[3] = system: INS; experiment: HD-DoE screening for optimal de novo beta cell induction (stage 3 cultures, 3 day perturbation), INS induction; details: for factor contribution, induction of INS: Example 19, four HD-DoE panels, FIG. 20; for effect on INS induction: heat map FIG. 21, dynamic profiling FIGS. 22-25
Description: FIG. 18 HD-DoE screening for optimal de novo beta cell induction. Culture of the iPSC cell line CR01 were differentiated to a DFE state for 3 days. These cultures were then incubated in the presence of stage 2 media for an additional 3 days. These cultures were then incubated for an additional 5 days in the presence of GSI-XX and A8301 followed by a 3 day incubation in the presence of a perturbation matrix composed of the compounds indicated in the different panels. This was performed 3 separate times (once for each of the 3 panels). These HD-DoE experiments were then analyzed using MODDE software for maximal induction of insulin. The predicted results are shown.
FIG. 20 HD-DoE screening for optimal de novo beta cell induction. Cultures of the iPSC cell line CR01 were differentiated to a DFE state for 3 days. These cultures were then incubated in the presence of stage 2 media for an additional 3 days. These cultures were then incubated for an additional 5 days in the presence of GSI-XX and A8301 followed by a 3 day incubation in the presence of a perturbation matrix composed of the compounds indicated in the different panels. This was performed 4 separate times (once for each of the 4 panels). These HD-DoE experiments were then analyzed using MODDE software for the maximal induction of Insulin. The predicted results are shown.
as §3
To define factors contributing to the activation of INS, a series of HD-DoE perturbations were performed using factors chosen to target different aspects of beta cell biology.
To define factors contributing to the activation of INS, a series HD-DoE perturbations were performed using factors chosen to target different aspects of beta cell biology.

[4] = system: GCG (alpha cell marker); experiment: HD-DoE stage 3 screening, heat map and dynamic profiling: GCG; details: heat map FIG. 21, dynamic profiling FIGS. 22-25
Source text: as §1, §2, §3

[5] = system: SST (delta cell marker); experiment: HD-DoE stage 3 screening, heat map and dynamic profiling: SST; details: heat map FIG. 21, dynamic profiling FIGS. 22-25
Source text: as §1, §2, §3

Molecule | factor contribution, induction of INS [3] | effect on INS induction [3] | effect on GCG induction / alpha cell fate [4] | effect on SST induction / delta cell fate [5] | also measured
COc1cc(O)c2c(c1)/C=C/C[C@H](O)[C@H](O)C(=O)/C=C\C[C@H](C)OC2=O [(5Z)-7-oxozeanol, (5Z)-7-Oxozeaenol] | – | – | – | – | factor contribution, PDX1 activation [1]: 8.2
Clc1ccc(C2(c3ccc(-c4cn[nH]c4)cc3)CCNCC2)cc1 [AT7867] | – | – | – | – | factor contribution, PDX1 activation [1]: 15.5
CC(C)Cn1c(=O)n(C)c(=O)c2[nH]cnc21 [IBMX] | – | – | – | – | effect on beta cell specific transcription factors / all genes optimized [2]: beneficial for all genes optimized
Nc1nc(OC(c2ccc(-c3cccc(F)c3)cc2)C(F)(F)F)cc(-c2ccc(C[C@H](N)C(=O)O)cc2)n1 (stereo partly drawn) [LP533401] | 10.7 | contributed to the induction of INS | – | – | –
Nc1nc(Nc2ccc3c(c2)CC[C@@H](N2CCCC2)CC3)nn1-c1cc2c(nn1)-c1ccccc1CCC2 [R248] | 22.9 | – | – | – | effect on beta cell state / endocrine fate [2]: strongest inducers of the beta cell state
Cc1nn(-c2ccccc2)c(C)c1/C=N/N1CCN(Cc2ccccc2)CC1 [SANT1] | 15.0 | stronger for INS induction | increased induction | increased induction | factor contribution, PDX1 activation [1]: 5.0; effect on beta cell state / endocrine fate [2]: increased induction of endocrine fates without total specificity towards the beta cell
CC(C)n1nc(C#Cc2ccccc2)c2c(N)ncnc21 [SPP86] | 4.8 | positive effect on INS induction, though with far less contribution | – | – | –
C/C(=C\c1ccc(C(=O)O)cc1)c1ccc2c(c1)C(C)(C)CCC2(C)C [TTNPB] | 12.7 | – | strongly inhibiting; also recorded: inhibitory | strongly inhibiting; also recorded: inhibitory | effect on beta cell state / endocrine fate [2]: strongest inducers of the beta cell state; effect on beta cell specific transcription factors / all genes optimized [2]: strongly activate all beta cell specific transcription factors
Clc1cccc(Cl)c1N=C1NCCN1 [clonidine] | – | contributed to the induction of INS | – | – | contribution factor, activation of INS ([3]; Example 17, three HD-DoE panels, FIG. 18): 23.4
CC1=NS(=O)(=O)c2cc(Cl)ccc2N1 [diazoxide] | – | positively increased INS induction, though not significantly | – | – | –
C[C@H](N)C(=O)N[C@@H](CCC(N)=O)C(=O)O [glutamax] (H-Ala-Gln-OH) | – | stronger for INS induction | increased induction | increased induction | effect on beta cell state / endocrine fate [2]: preferentially favoring the beta cell fate, though to a lesser level; also recorded: positive inducer of endocrine fate; also recorded: increased induction of endocrine fates without total specificity towards the beta cell
NC(=O)CC[C@H](N)C(=O)O [glutamine] | 10.4 | – | – | – | –
CCC(=O)O [propionate] | 5.3 | significantly increased INS levels | inhibited | inhibited | effect on beta cell state / endocrine fate [2]: preferentially favoring the beta cell fate, though to a lesser level
CC1=C(/C=C/C(C)=C/C=C/C(C)=C/C(=O)O)C(C)(C)CCC1 [retinoic acid] | – | – | – | – | factor contribution, PDX1 activation [1]: 19.2
CN(CCOc1ccc(CC2SC(=O)NC2=O)cc1)c1ccccn1 (stereo not drawn) [rosiglitazone] | 6.0 | – | – | – | –
NCCc1c[nH]c2ccc(O)cc12 [serotonin] | – | – | strongly activated GCG induction | inhibited SST induction | –
NCCc1c[nH]c2ccccc12 [tryptamine] | 21.2 | strongest INS inducing effects | no effect | no effect | –
FGF19: FGF pathway agonist | – | contributed to overall INS induction, but to a much smaller degree | – | – | –
obestatin | 9.6 | contributed to the induction of INS | – | – | –
B1 | – | positively increased INS induction, though not significantly | – | – | –
